The source made the active and inactive calls. No cut-off for these calls is given here.
Assays:
[1] = biological target: Botulinum neurotoxin type A (Clostridium botulinum (strain Hall / ATCC 3502 / NCTC 13319 / Type A)) (UniProt P0DPI1); experiment: Inhibition of Clostridium botulinum strain Hall A hyper botulinum neurotoxin type A1 in rat spinal cord cells assessed as intact SNAP25 protein level at 1 mM after 24 hrs by Western blot using monoclonal anti-SNAP25 antibody; format: cell-based
[2] = biological target: Botulinum neurotoxin type A (Clostridium botulinum (strain Hall / ATCC 3502 / NCTC 13319 / Type A)) (UniProt P0DPI1); experiment: Inhibition of Clostridium botulinum strain Hall A hyper botulinum neurotoxin type A1 in rat spinal cord cells assessed as intact SNAP25 protein level at 200 uM after 24 hrs by Western blot using monoclonal anti-SNAP25 antibody; format: cell-based

Botulinum neurotoxin type A (Clostridium botulinum (strain Hall / ATCC 3502 / NCTC 13319 / Type A)), sequence (P0DPI1 2-448 limits assumed): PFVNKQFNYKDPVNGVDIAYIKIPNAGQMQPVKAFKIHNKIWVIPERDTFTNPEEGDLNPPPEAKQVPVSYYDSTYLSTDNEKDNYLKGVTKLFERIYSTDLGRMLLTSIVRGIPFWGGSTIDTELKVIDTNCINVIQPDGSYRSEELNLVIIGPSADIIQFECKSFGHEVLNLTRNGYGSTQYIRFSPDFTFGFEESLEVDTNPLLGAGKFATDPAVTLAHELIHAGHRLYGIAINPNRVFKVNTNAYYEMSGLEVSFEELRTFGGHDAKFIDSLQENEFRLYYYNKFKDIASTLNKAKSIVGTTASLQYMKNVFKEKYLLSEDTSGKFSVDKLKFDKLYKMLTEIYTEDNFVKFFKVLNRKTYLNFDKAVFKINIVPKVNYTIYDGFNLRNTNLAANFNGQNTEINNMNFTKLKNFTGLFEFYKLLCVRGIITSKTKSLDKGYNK

Row | Structure (SMILES) | inhibition [1] | inhibition [2]
1 | CC(=O)O[C@@H]1C[C@H](O)[C@]23CC[C@H](O)C[C@H]2[C@H]1[C@H](O)OC3 | inactive | –
2 | CC(=O)O[C@@H]1C[C@H](O)[C@@]23CO[C@@H](O)[C@]1(C)[C@@H]2C[C@@H](O)[C@]1(C)[C@@H]3C(=O)[C@H](OC(C)=O)[C@@]2(C)[C@H](c3ccoc3)C[C@H]3O[C@]321 | – | Active
3 | CC(=O)O[C@@H]1C[C@H](O)[C@]23CC[C@@H](O)C[C@H]2[C@H]1[C@H](O)OC3 | inactive | –

From ChEMBL document CHEMBL1159076, “Toosendanin: synthesis of the AB-ring and investigations of its anti-botulinum properties (Part II)” (Bioorg Med Chem, 2010)
